Several values for one entry are separate records, joined by “and”; a condition that tells them apart may be missing. Equal entries are not always repeated. Entries after “also recorded” stand apart in the source; their conditions may differ.
Legend:
[1] = test system: patients with advanced cancer and cachexia; details: after 4 weeks; cited from earlier work
[2] = test system: patients with various cancers with cachexia; details: 50 mg once per day, cited from earlier work
[3] = test system: patients with NSCLC-Cachexia; test: Romana 1: randomized, double-blind, placebo-controlled phase 3 study of anamorelin HCl; type: in vivo, human; details: for Fatigue Domain of FACIT-F, change from baseline, subgroup / Simplified Evaluation of Fatigue (SEF), change from baseline, subgroup: MITT
Excerpt: Example 1 Anamorelin HCl in the Treatment of Non-Small Cell Lung Cancer—Cachexia (NSCLC-C): A Randomized, Double-Blind, Placebo-Controlled, Multicenter, Phase III Study to Evaluate the Safety and Efficacy of Anamorelin HCl in Patients with NSCLC-C(Romana 1)
(§1) Key features of the Romana 1 study are as follows: • DESIGN: randomized, double-blind, placebo-controlled, multicenter, phase 3 study to evaluate the safety and efficacy of anamorelin HCl (anamorelin) in patients with NSCLC-Cachexia (59 sites; 15 countries) • PRIMARY ENDPOINT: Lean body mass (LBM) by DXA • SECONDARY ENDPOINTS: • Key: pooled overall survival, Anorexia/Cachexia sub-domain, Fatigue sub-domain, Simplified Evaluation of Appetite (SEA), and Simplified Evaluation of Fatigue (SEF) • Other: Body weight, study specific overall survival, FAACT/FACIT-F trial outcome index (TOI) and total scores, additional LBM analyses • EXPLORATORY ENDPOINTS: Hunger Assessment Scale (HAS), Karnofsky (KPS), responder analyses; Population pharmacokinetics (PK) in 90 patients • STUDY POPULATION: advanced NSCLC (unresectable Stage III or IV) and cachexia (≥5% body weight within 6 months or screening BMI<20 kg/m^2) • SAMPLE SIZE: 484 patients; randomization ratio 2:1 (anamorelin:placebo) • DOSING: placebo or 100 mg anamorelin for 12 weeks • SAFETY ASSESSMENTS: Adverse events (AEs), labs, vitals, ECGs

[4] = test system: patients with NSCLC-Cachexia; test: Romana 2: randomized, double-blind, placebo-controlled phase 3 study of anamorelin HCl; type: in vivo, human
Excerpt: Example 2 Anamorelin HCL in the Treatment of Non-Small Cell Lung Cancer—Cachexia (NSCLC-C): A Randomized, Double-Blind, Placebo-Controlled, Multicenter, Phase III Study to Evaluate the Safety and Efficacy of Anamorelin Hcl in Patients with NSCLC-C(Romana 2)
as §1, with “Romana 2” for “Romana 1”, “SIZE: 495” for “SIZE: 484”

[5] = test system: patients with various cancers and cachexia; details: 50 mg once per day; cited from earlier work
[6] = test system: patients with advanced non-small cell lung cancer (NSCLC); details: cited from earlier work
healthy subjects [7] = details: 50 or 75 mg doses; after 6 days; cited from earlier work
healthy subjects [8] = details: cited from earlier work
[9] = test system: patients with cancer anorexia-cachexia syndrome; details: cited from earlier work
[10] = ITT population, 100 mg anamorelin for 12 weeks, LBM by DXA
[11] = ITT population, over 12 weeks, 100 mg
[12] = MITT population, 12-week study period, anamorelin vs. placebo
[13] = MITT population, over 12 weeks, 100 mg
[14] = anamorelin treatment for 12 weeks

## COc1ccc2[nH]cc(CCNC(C)=O)c2c1 [melatonin]
[1]
  Weight, body composition (including fat-free mass), symptom scores, quality-of-life outcomes (FACIT-F and FAACT) vs placebo: No differences

## CN(C)N(C)C(=O)[C@@]1(Cc2ccccc2)CCCN(C(=O)[C@@H](Cc2c[nH]c3ccccc23)NC(=O)C(C)(C)N)C1 [anamorelin]
[2]
  ASAS scores: improved
  Fat mass decrease vs. placebo: the difference did not reach statistical significance
  Quality of life as measured by the FACIT-F test: No significant effects
  Scale weight measures: no corresponding increase
[2]; weeks 4, 8, and 12
  Levels of IGF-1: significantly increased
  Levels of IGFBP-3: significantly increased
[2]; weeks 4 and 8
  Lean body mass compared to placebo: significantly increased
  Total body mass compared to placebo: significantly increased
[3]; [10]
  Lean Body Mass, median change from baseline over 12 weeks: 1.10 kg
[3]; [11]
  Lean Body Mass, median treatment difference (anamorelin vs. placebo): 1.54 kg
[3]; [12]
  FAACT TOI, overall treatment difference: 2.86±1.161
  FAACT Total, overall treatment difference: 2.67±1.459
  FACIT TOI, overall treatment difference: 1.90±1.358
  FACIT Total, overall treatment difference: 2.07±1.651
[3]; [13]
  Anorexia/Cachexia Domain, Treatment Difference (anamorelin vs. placebo), LS Mean (SE): 2.21 (0.617)
  Body Weight, Treatment Difference (anamorelin vs. placebo), LS Mean (SE): 2.07 (0.325) kg
  Body Weight, overall change from baseline, LS Mean (SE): 2.20±0.3 kg and 2.20 (0.326) kg
  FACIT-F Fatigue Domain, change from baseline, LS Mean (SE): 0.26 (0.886)
  SEA Score, Treatment Difference (anamorelin vs. placebo), LS Mean (SE): 0.65 (0.262)
  SEA Score, change from baseline, LS Mean (SE): 1.57 (0.317)
  SEF Score, Treatment Difference (anamorelin vs. placebo), LS Mean (SE): 0.33 (0.265)
  SEF Score, change from baseline, LS Mean (SE): 0.11 (0.309)
[3]; BMI>18.5, Week 3 to 12
  Fatigue Domain of FACIT-F, change from baseline, subgroup: smaller improvement trend
[3]; BMI≤18.5 (statistically significant at Week 3 and 6)
  Simplified Evaluation of Fatigue (SEF), change from baseline, subgroup: improvement trend over 12 Weeks
[3]; ECOG 0-1, Week 3, 6, 9 to 12
  Fatigue Domain of FACIT-F, change from baseline, subgroup: gap increase between placebo and anamorelin
[3]; aged 65 years and younger, concomitant opioid use, ECOG 2 (Weeks 9 and 12), BMI≤18.5
  Fatigue Domain of FACIT-F, change from baseline, subgroup: statistically significant improvement
[3]; concomitant opioid use
  Simplified Evaluation of Fatigue (SEF), change from baseline, subgroup: small trend of improvement
[3]; males, Week 3 to 6 (statistically significant at Week 9)
  Fatigue Domain of FACIT-F, change from baseline, subgroup: general improvement trend
[3]; no-concomitant opioid use
  Fatigue Domain of FACIT-F, change from baseline, subgroup: smaller overall improvement trend
[3]; [14]
  Tolerability: well tolerated
[3]; throughout the 12-week study
  Percentage change from baseline in LBM: consistent improvement
[3]; week 9, 100 mg
  FACIT-F score (fatigue), change from baseline: 0.33±0.9
[3]; week 12, 100 mg
  FACIT-F score (fatigue), change from baseline: 0.48±1.0
[4]; [10]
  Lean Body Mass, median change from baseline over 12 weeks: 0.75
[4]; [11]
  Lean Body Mass, median treatment difference (anamorelin vs. placebo): 1.71
[4]; MITT population
  FAACT TOI and total score (cachexia concerns): trending benefit
  FACIT-F TOI and total score: No benefit
[4]; MITT population, 12-week study period
  SEF score vs. placebo: overall small trend of improvement; also recorded: not statistically different from placebo
[4]; [13]
  Anorexia/Cachexia Domain, Treatment Difference (anamorelin vs. placebo), LS Mean (SE): 2.14 (0.676)
  Body Weight, Treatment Difference (anamorelin vs. placebo), LS Mean (SE): 1.53 (0.327) kg
  Body Weight, overall change from baseline, LS Mean (SE): 0.95 (0.386) kg
  FAACT Anorexia/Cachexia Domain, change from baseline, LS Mean (SE): 3.48 (0.944)
  SEA Score, Treatment Difference (anamorelin vs. placebo), LS Mean (SE): 0.66 (0.283)
  SEA Score, change from baseline, LS Mean (SE): 1.08 (0.400)
[4]; MITT, BMI less than or equal to 18.5
  FACIT-F fatigue score, subgroup: maintained a steady score after Week 3
[4]; MITT, ECOG of 2
  FACIT-F fatigue score, subgroup: general trend of improvement
[4]; MITT, concomitant opioid use and BMI≤18.5
  SEF score, subgroups: Specific improvements
[4]; MITT, concomitantly taking opioids, after Week 3
  FACIT-F fatigue score, subgroup: did not experience as severe of a decline in score as those in the placebo group
[4]; MITT, patients under the age of 65, after Week 3
  FACIT-F fatigue score, subgroup: did not experience as severe of a decline in score as those in the placebo group
[4]; [14]
  Tolerability: well tolerated
[4]; in vivo
  Concerns related to weight and body image (FAACT): an improvement
  Percentage of change in LBM: consistent increases
  Symptoms of early satiety and appetite (individual FAACT questions), change from baseline over time: showed an improvement
[5]
  Appetite as measured by BACRI-7: no significant difference
  Body weight compared with placebo: significantly increased
  Enjoyment from eating (BACRI-7): significantly more patients reported greater enjoyment from eating
  FACIT-F scores: significantly increased
  Food intake: increased but not significantly
  GH levels: significantly increased
  IGF-1 levels: significantly increased
  IGFBP-3 levels: significantly increased
  Patient-reported appetite as measured by ASAS: significantly improved
[6]; 100 mg once daily
  Average weight gain from baseline to week 12: statistically significant average weight gain
[6]; 50 or 100 mg once daily
  IGFBP-3 as compared to placebo: statistically significant increases
  MD Anderson Symptom Inventory (MDASI) scores: the improvement was not significant
Healthy subjects [7]
  Body weight gain versus placebo: significant dose-related weight gain
Healthy subjects [8]; 50 mg dose (single or split dose) and 75 mg dose
  Body weight: significant increases
Healthy subjects [8]; all doses (25, 50, 75 mg)
  GH levels: significantly increased
  IGF-1 levels: significantly increased

## CC(=O)O[C@]1(C(C)=O)CC[C@H]2[C@@H]3C=C(C)C4=CC(=O)CC[C@]4(C)[C@H]3CC[C@@]21C [megestrol acetate]
[9]; 13 of 14 studies no significant difference vs placebo, dronabinol, eicosapentaenoic acid or glucocorticosteroids
  Quality of life in cancer cachexia patients: has not been shown to improve
[9]; human, in vivo
  Body weight and water: only been shown to increase body weight and water
  Fat mass or lean body mass: does not improve
